Reference: patent US3966956A, “[1-(P-Chlorobenzoyl)-5-methoxy-2-methyl-3-indole]acetoxyacetic acid and salts in treating inflammation” (Troponwerke Dinklage & Company, priority 1972, dated 1976)
Where a name gives a salt, the structure may show the parent alone. Read-outs that look alike come from different tables or passages of the source.

Key:
kaolin oedema of the paw = kaolin oedema of the paw of a rat; format: in vivo; conditions: for ED50: read-out: ED50 (dose which reduces the oedemas by half as compared with a control group)
[1] = system: formalin oedema of the paw; assay: formalin oedema on the paw of a rat; format: in vivo; conditions: once orally
Source text: (§1) Furthermore, with two other forms of inflammation, the inflammations produced with formalin and carrageenin on the paw of a rat, the oedema-inhibiting efficiency of I is stronger than that of II. […] These differences are also statistically significant.

[2] = system: carrageenin oedema of the paw; assay: carrageenin oedema on the paw of a rat; format: in vivo; conditions: once orally
Source text: as §1

adjuvant arthritis = assay: arthritis produced in the rat with Freud's adjuvants; format: in vivo
[3] = system: sulphydryl groups present in the serum; assay: Gerber method: reaction velocity of serum sulphydryl groups with 2,2'-dinitro-5,5-dithiobenzoic acid; format: biochemical; conditions: concentration range 0.5 to 3 mMol/liter
Source text: Another characteristic test for determining the activity of non-steroid antiphlogistic substances is the method described by D. A. Gerber, N. Cohen and R. Giustra (cf. Biochem. Pharmacol. 16 (1967) 115) of influencing the physical-chemical behaviour of native protein, for example influencing the reaction velocity of the sulphydryl groups present in the serum with 2,2'-dinitro-5,5-dithiobenzoic acid. […] Since, according to Gerber et al, (loc. cit.), the percentage increase in reaction velocity is directly proportional to antiphlogistic activity, a greater activity of I by comparison with II can also be derived from this […] test; this applies above all in the lower concentration ranges (105:39) which come closest to the therapeutically attainable concentrations. In this case, too, the intact compound I can be shown to be the only active component.

human albumin = assay: protein binding by the ultracentrifuging method; format: in vitro ADME; conditions: same protein and equivalent substance concentration
Source text: Another interesting criterion for the activity of a pharmacon is protein binding. It is known that, in the serum, pharmacons are partly bound to protein and it is only those fractions that are not bound to protein which are responsible for the onset of biological activity. […] Where human albumin is used, the differences amount to about 60%, in other words, for the same protein concentration and an equivalent substance concentration, the values for non-protein-bound I are about 60% higher than those of II. The values found for II are consistent with those described in the literature (cf. E. Hvidberg et al, Eur. J. clin. Pharmacol. 4 (1972), 119). Accordingly, I can be expected to show greater activity in this test as well, i.e. a smaller dosage of I is required which can again be of advantage in toxicological terms.

[4] = resorption after oral administration in dogs; format: in vivo; conditions: dog
[5] = acute oral toxicity (LD50), mouse; conditions: in vivo, single oral administration, I given as sodium salt
Procedure: (§2) The toxicity data (LD50) of both compounds are as follows:
(§3) As regards I, after single oral administration of 55.5 mg/kg to the mouse and 38.9 mg/kg to the rat (using the sodium salt of I). The corresponding data for II are 18.4 and 24.5 mg/kg, respectively.

[6] = acute oral toxicity (LD50), rat; conditions: in vivo, single oral administration, I given as sodium salt
Procedure: as §2, §3

protein = assay: Mizushima's Test (inhibition of protein hazing); format: biochemical
Procedure: It was also possible to confirm the superiority of I over II in Mizushima's Test in which potent antiphlogistics are known to inhibit protein hazing directly proportional to their antiphlogistic potency (cf. Arch. int. Pharmacodyn. 149 (1964), 1, and 157 (1965), 115).
A DE50 of 0.07 mg/ml was measured for the sodium salt of I, in other words the level of protein hazing was inhibited by 50% at this concentration.

[7] = cited from earlier work
[8] = patients, relatively slight side effects and serious cases; cited from earlier work
[9] = stability of the dissolved sodium salt in water or water/alcohol; format: physicochemical; conditions: aqueous or aqueous-alcoholic solution
Source text: the free acid I can be converted into its salts in a manner known per se. Pharmacologically acceptable and conventional inorganic and organic bases can be considered for this purpose.

## COc1ccc2c(c1)c(CC(=O)OCC(=O)O)c(C)n2C(=O)c1ccc(Cl)cc1 [I, [1-(p-chlorobenzoyl)-5-methoxy-2-methyl-3-indole]-acetoxyacetic acid]
Kaolin oedema of the paw; rat, single oral application, range of confidence (P = 5%): I 0.37 to 0.67, II 0.83 to 1.40
  ED50: 0.5 mg/kg
Kaolin oedema of the paw; rat, single oral, from ED50
  relative effectiveness I versus II on kaolin oedema: about twice as effective as II
[1]; 1.5 mg/kg
  inhibition of formalin oedema: 25%
[2]; 1.5 mg/kg
  inhibition of carrageenin oedema: 62%
Adjuvant arthritis; oral, daily dose 3.5 mg/kg of I versus equimolar 3 mg/kg of II
  antiphlogistic effect on adjuvant arthritis compared with II: decidedly stronger than that of the equimolar daily dose of 3 mg/kg of II
Adjuvant arthritis; primary and generalised inflammation symptoms
  inflammation-inhibiting efficiency on adjuvant arthritis: strong inflammation-inhibiting efficiency
[3]
  increase in reaction velocity of serum sulphydryl groups: 105-335%
Human albumin
  increase of non-protein-bound fraction over II: about 60%
[4]
  detection as an unchanged molecule in the organism: can be detected as an unchanged molecule for several hours in the organism
  resorption after oral administration: well resorbed after oral administration
[5]
  LD50: 55.5 mg/kg
[6]
  LD50: 38.9 mg/kg

## COc1ccc2c(c1)c(CC(=O)O)c(C)n2C(=O)c1ccc(Cl)cc1 [II, 1-(p-chlorobenzoyl)-5-methoxy-2-methyl-3-indole acetic acid, reference compound]
Kaolin oedema of the paw; Rattus norvegicus, po
  ED50: 1.04 mg/kg
[1]; 1.6 mg/kg
  inhibition of formalin oedema: 13.8%
[2]; 1.6 mg/kg
  inhibition of carrageenin oedema: 42%
protein
  DE50 (concentration inhibiting the level of protein hazing by 50%): 0.13 mg/mL
[3]
  increase in reaction velocity of serum sulphydryl groups: 39-272%
[5]
  LD50: 18.4 mg/kg
[6]
  LD50: 24.5 mg/kg
[7]
  patients in whom therapy had to be discontinued because of the side effects: ~10%
[8]
  side effects: neurosensitive disturbances such as headaches, vertigos and concentration difficulties, digestive complaints with loss of appetite, sickness, stomach pains, diarrhoea and, finally, some serious cases of intestinal bleeding, stomach ulcers and, occasionally, neurological deficiency symptoms

## COc1ccc2c(c1)c(CC(=O)OCC(=O)O)c(C)n2C(=O)c1ccc(Cl)cc1 [sodium salt of I]
protein
  DE50 (concentration inhibiting the level of protein hazing by 50%): 0.07 mg/mL
[9]
  stability/clarity of solution of the sodium salt: the solution remains clear for a considerable period of time

## COc1ccc2c(c1)c(CC(=O)O)c(C)n2C(=O)c1ccc(Cl)cc1 [sodium salt of the known compound II, reference compound]
[9]
  stability/clarity of solution of the sodium salt: almost immediately, a clouding of the solution and the compound II begins to decompose
